Read-outs that look alike come from different tables or passages of the source.
Legend:
Assay type in all cases: biochemical, Corynebacterium glutamicum
[1] = system: 3-deoxy-D-arabino-hepturosonate-7-phosphate synthase (DS); assay: Inhibition of DS activity by phenylalanine and tyrosine; details: DS in the ATCC 13032 transformant carrying pCGDS1
Experimental: DS activities of Corynebacterium glutamicum ATCC 13032 and the transformant carrying pCGDS1 were determined according to the method of P. R. Sprinavasan, D. B. Sprinson, et al. [J. Biol. Chem., 234, 716 (1959)].

[2] = system: anthranilate synthase (AS); assay: Feedback inhibition of anthranilate synthase (AS) activity by tryptophan; details: for IC50: read-out: Tryptophan concentration for 50% inhibiting the AS activity
Experimental: (§1) AS activities of Corynebacterium glutamicum ATCC 13032 and TA108 strains carrying pCtrp1 or pCtrp57 were determined according to the method of H. Hagino, et al. [Agric. Biol. Chem., 39, 323 (1975)], and their PRT activities were determined according to the method of J. Ito and C. Yanofsky [J. Biol. Chem., 97, 734 (1969)]. AS and PRT activities of TA108 strains carrying pCtrp1 or pCtrp57 were more than 10 times as high as those of ATCC 13032 strain. Tryptophan concentrations for 50% inhibiting the AS activities of […] strain, TA108 strain carrying pCtrp1 and TA108 strain carrying pCtrp57 were 0.002 mM, 0.008 mM and 4.0 mM, respectively, while tryptophan concentrations for 50% inhibiting the PRT activities of these three strains were 0.19 mM, 0.19 mM and 4.8 mM, respectively.

[3] = system: anthranilate phosphoribosyl transferase (PRT); assay: Feedback inhibition of anthranilate phosphoribosyl transferase (PRT) activity by tryptophan; details: for IC50: read-out: Tryptophan concentration for 50% inhibiting the PRT activity
Experimental: as §1

| SMILES | Inhibition of DS [1] | Factor by which AS is less sensitive to tryptophan ([2]; AS encoded by pCtrp57 compared with AS encoded by pCtrp1) | IC50 ([2]; AS of TA108 strain carrying pCtrp1) | IC50 ([2]; AS of TA108 strain carrying pCtrp57) | Factor by which PRT is less sensitive to tryptophan ([3]; PRT encoded by pCtrp57 compared with PRT encoded by pCtrp1) | IC50 ([3]; PRT of TA108 strain carrying pCtrp1) | IC50 ([3]; PRT of TA108 strain carrying pCtrp57) |
| --- | --- | --- | --- | --- | --- | --- | --- |
| N[C@@H](Cc1ccccc1)C(=O)O [phenylalanine] | free from inhibition | – | – | – | – | – | – |
| N[C@@H](Cc1c[nH]c2ccccc12)C(=O)O [tryptophan] | – | about 500 | 8 µM | 4000 µM | about 25 | 190 µM | 4800 µM |
| N[C@@H](Cc1ccc(O)cc1)C(=O)O [tyrosine] | free from inhibition | – | – | – | – | – | – |
